Reference: publication PMC9516332 (Frontiers in Oncology, 2022)
Read-outs that look alike come from different tables or passages of the source.

System: 134 cancer cell lines
Assay: Cell viability assay (ATPlite, 72 hours), IC50 on cancer cell line panel

C[C@H](Nc1ncnc2nc[nH]c12)c1cc2cccc(Cl)c2c(=O)n1-c1ccccc1 [duvelisib]
IC50 (Homo sapiens, MG-63, read-out: IC50 in cell proliferation assay, MG-63 cell line): 7.8 µM
IC50 (Homo sapiens, MIA PaCa-2, read-out: IC50 in cell proliferation assay, MIA PaCa-2 cell line): 12.9 µM
IC50 (Homo sapiens, MKN-45, read-out: IC50 in cell proliferation assay, MKN45 cell line (MET amplification)): 2.36 µM
IC50 (Homo sapiens, MOLM-13, read-out: IC50 in cell proliferation assay, MOLM-13 cell line (FLT3 ITD)): 0.004 µM
IC50 (Homo sapiens, MOLT-4, read-out: IC50 in cell proliferation assay, MOLT-4 cell line): 5.92 µM
IC50 (Homo sapiens, MV4-11, read-out: IC50 in cell proliferation assay, MV4-11 cell line (FLT3 ITD)): 0.014 µM
IC50 (Homo sapiens, MeWo, read-out: IC50 in cell proliferation assay, MeWo cell line): 28.1 µM
IC50 (Homo sapiens, NCCIT, read-out: IC50 in cell proliferation assay, NCC-IT cell line): 10.6 µM
IC50 (Homo sapiens, NCI-H82, read-out: IC50 in cell proliferation assay, cell line NCI-H82): > 31.6 µM
IC50 (Homo sapiens, NCI-H460, read-out: IC50 in cell proliferation assay, NCI-H460 cell line): 11.1 µM
IC50 (Homo sapiens, NCI-H661, read-out: IC50 in cell proliferation assay, NCI-H661 cell line): 3.22 µM
IC50 (Homo sapiens, NCI-H716, read-out: IC50 in cell proliferation assay, cell line NCI-H716 (FGFR2-COL14A1)): 5.31 µM
IC50 (Homo sapiens, NCI-H1650, read-out: IC50 in cell proliferation assay, NCI-H1650 cell line (EGFR exon19del)): 11 µM
IC50 (Homo sapiens, NCI-H1975, read-out: IC50 in cell proliferation assay, NCI-H1975 cell line (EGFR p.L858R + p.T790M)): 7.77 µM
IC50 (Homo sapiens, NCI-H2228, read-out: IC50 in cell proliferation assay, NCI-H2228 cell line (EML4-ALK)): 13.8 µM
IC50 (Homo sapiens, OVCAR-3, read-out: IC50 in cell proliferation assay, cell line OVCAR-3): 0.617 µM
IC50 (Homo sapiens, PFSK-1, read-out: IC50 in cell proliferation assay, cell line PFSK-1): 13.1 µM
IC50 (Homo sapiens, RL95-2, read-out: IC50 in cell proliferation assay, cell line RL95-2 (EGFR p.A289V)): 3.6 µM
IC50 (Homo sapiens, RPMI-7951, read-out: IC50 in cell proliferation assay, cell line RPMI-7951 (BRAF p.V600E)): 2.81 µM
IC50 (Homo sapiens, RS4-11, read-out: IC50 in cell proliferation assay, cell line RS4;11): 9.2 µM
IC50 (Homo sapiens, Rec1, read-out: IC50 in cell proliferation assay, cell line REC-1): 14.4 µM
IC50 (Homo sapiens, SHP77, read-out: IC50 in cell proliferation assay, cell line SHP-77): > 31.6 µM
IC50 (Homo sapiens, SK-BR-3, read-out: IC50 in cell proliferation assay, cell line SK-BR-3 (ERBB2 amplification)): 2.33 µM
IC50 (Homo sapiens, SK-N-AS, read-out: IC50 in cell proliferation assay, cell line SK-N-AS): > 31.6 µM
IC50 (Homo sapiens, SK-N-FI, read-out: IC50 in cell proliferation assay, cell line SK-N-FI): > 31.6 µM
IC50 (Homo sapiens, SK-N-MC, read-out: IC50 in cell proliferation assay, cell line SK-N-MC): 12.2 µM
IC50 (Homo sapiens, SK-N-SH, read-out: IC50 in cell proliferation assay, cell line SK-N-SH (ALK p.F1174L)): 12.6 µM
IC50 (Homo sapiens, SNU-5, read-out: IC50 in cell proliferation assay, cell line SNU-5 (MET amplification)): 11.2 µM
IC50 (Homo sapiens, SNU-16, read-out: IC50 in cell proliferation assay, cell line SNU-16 (FGFR2 amplification)): > 31.6 µM
IC50 (Homo sapiens, SNU-C2B, read-out: IC50 in cell proliferation assay, cell line SNU-C2B (EGFR p.R165Q)): 9.36 µM
IC50 (Homo sapiens, SU-DHL-1, read-out: IC50 in cell proliferation assay, cell line SU-DHL-1 (NPM1-ALK)): 22.6 µM
IC50 (Homo sapiens, SU-DHL-6, read-out: IC50 in cell proliferation assay, cell line SU-DHL-6): 0.00177 µM
IC50 (Homo sapiens, SUP-T1, read-out: IC50 in cell proliferation assay, cell line SUP-T1): 29.3 µM
IC50 (Homo sapiens, SW48, read-out: IC50 in cell proliferation assay, cell line SW48 (EGFR p.G719S)): 5.94 µM
IC50 (Homo sapiens, SW480, read-out: IC50 in cell proliferation assay, cell line SW480): 30.5 µM
IC50 (Homo sapiens, SW626, read-out: IC50 in cell proliferation assay, cell line SW626): 24.9 µM
IC50 (Homo sapiens, SW780, read-out: IC50 in cell proliferation assay, cell line SW780 (FGFR3-BAIAP2L1)): > 31.6 µM
IC50 (Homo sapiens, SW837, read-out: IC50 in cell proliferation assay, cell line SW837): 25.9 µM
IC50 (Homo sapiens, SW872, read-out: IC50 in cell proliferation assay, cell line SW872 (BRAF p.V600E)): 23.7 µM
IC50 (Homo sapiens, SW900, read-out: IC50 in cell proliferation assay, cell line SW900): 7.57 µM
IC50 (Homo sapiens, SW948, read-out: IC50 in cell proliferation assay, cell line SW948): 12.7 µM
IC50 (Homo sapiens, SW982, read-out: IC50 in cell proliferation assay, cell line SW982 (BRAF p.V600E)): 4.21 µM
IC50 (Homo sapiens, SW-620, read-out: IC50 in cell proliferation assay, cell line SW620): 20.1 µM
IC50 (Homo sapiens, T98G, read-out: IC50 in cell proliferation assay, cell line T98G): 4.8 µM
IC50 (Homo sapiens, TCC-SUP, read-out: IC50 in cell proliferation assay, cell line TCCSUP): 21.6 µM
IC50 (Homo sapiens, THP-1, read-out: IC50 in cell proliferation assay, cell line THP-1): 0.15 µM
IC50 (Homo sapiens, U2OS, read-out: IC50 in cell proliferation assay, cell line U2OS): 8.82 µM
IC50 (Homo sapiens, U-87 MG, read-out: IC50 in cell proliferation assay, cell line U-87MG ATCC): 10.5 µM
IC50 (Homo sapiens, U-118-MG, read-out: IC50 in cell proliferation assay, cell line U-118MG): > 31.6 µM
IC50 (Homo sapiens, UMUC3, read-out: IC50 in cell proliferation assay, cell line UM-UC-3): 25.3 µM
IC50 (Hs766T, read-out: IC50 in cell proliferation assay, Hs 766T cell line): 18.6 µM
IC50 (L-82, read-out: IC50 in cell proliferation assay, L-82 cell line (NPM1-ALK)): 22.1 µM
IC50 (Rh30, read-out: IC50 in cell proliferation assay, cell line Rh30): 12.2 µM
IC50 (read-out: IC50 in cell proliferation assay, 11-18 cell line (EGFR p.L858R)): 12.9 µM
IC50 (read-out: IC50 in cell proliferation assay, Hs 852.T cell line): 21.4 µM
IC50 (read-out: IC50 in cell proliferation assay, JAR cell line): 0.234 µM
IC50 (read-out: IC50 in cell proliferation assay, cell line 5637): 28 µM
IC50 (read-out: IC50 in cell proliferation assay, cell line A-388): 12.4 µM
IC50 (read-out: IC50 in cell proliferation assay, cell line DB): > 31.6 µM
IC50 (read-out: IC50 in cell proliferation assay, cell line DEL (NPM1-ALK)): > 31.6 µM
IC50 (read-out: IC50 in cell proliferation assay, cell line ES-2 (BRAF p.V600E)): > 31.6 µM
IC50 (read-out: IC50 in cell proliferation assay, cell line PA-1): 10.7 µM
IC50 (read-out: IC50 in cell proliferation assay, cell line PC-3): 5.81 µM
IC50 (read-out: IC50 in cell proliferation assay, cell line RD): 27.6 µM
IC50 (read-out: IC50 in cell proliferation assay, cell line RKO (BRAF p.V600E)): 8.82 µM
IC50 (read-out: IC50 in cell proliferation assay, cell line RL): 24 µM
IC50 (read-out: IC50 in cell proliferation assay, cell line RT-4 (FGFR3-TACC3)): 9.68 µM
IC50 (read-out: IC50 in cell proliferation assay, cell line SR (NPM1-ALK)): 14.1 µM
IC50 (read-out: IC50 in cell proliferation assay, cell line T24): 31.2 µM
IC50 (read-out: IC50 in cell proliferation assay, cell line TT (RET p.C634W)): > 31.6 µM
IC50 (read-out: IC50 in cell proliferation assay, cell line VA-ES-BJ): 2.94 µM
